The values that follow are results of earlier work, collected in patent US7585520B2, “Compositions containing both sedative and non-sedative antihistamines and sleep aids” (Collegium Pharmaceutical, Inc., priority 2001, dated 2009).

SMILES strings stand for the structures.

The conditions of this data set: drug or active metabolite.

With `COc1ccc(CCN2CCC(Nc3nc4ccccc4n3Cc3ccc(F)cc3)CC2)cc1` [Astemizole], the Elimination half-life is 20 to 30 h.

As to `Clc1ccc2c(c1)CCc1cccnc1C2=C1CCNCC1` [Descarboethoxyloratidine], the Elimination half-life is 17.3 to 24 h. On to `Oc1ccc(CCN2CCC(Nc3nc4ccccc4n3Cc3ccc(F)cc3)CC2)cc1` [Desmethylastemizole], for which the Elimination half-life is 290 h. For the compound `CC(C)(C)c1ccc(C(=O)CCCN2CCC(OC(c3ccccc3)c3ccccc3)CC2)cc1` [Ebastine], the Elimination half-life was 13 to 16 h.

In the case of `CN(c1nccc(=O)[nH]1)C1CCN(c2nc3ccccc3n2Cc2ccc(F)cc2)CC1` [Mizolazine], the Elimination half-life was 8 to 13 h.
